Columns and labels:
[1] = system: MC3T3-E1 cells; assay: Dephosphorylation of probe compounds on cell-cultured CDHA (fluorescence images, radiant efficiency); format: cell-based; details: CDHA specimen cultured with cells, treated with probe; diffused ALP hydrolysis increased over time in MC3T3-E1 cells
Method: In order to confirm the dephosphorylation of the fluorescent probe compounds by ALP or pH change on CDHA, three bare CDHA specimens and three CDHA specimens cultured with MC3T3-E1 cells and Raw264.7 cells were prepared, the results of examining fluorescence images obtained by treating, the three specimens, one of which was treated with the bone-forming activity marker-sensitive fluorescent probe compound of Synthetic Example 1, another of which was treated with the bone-resorbing activity marker-sensitive fluorescent probe compound of Synthetic Example 2, and the remaining one of which was treated with both the bone-forming activity marker-sensitive fluorescent probe compound and the bone-resorbing activity marker-sensitive fluorescent probe compound, were illustrated in FIG. 11, and the results of measuring fluorescence efficiency (radiant efficiency) in each of six specimens were illustrated in FIGS. 12A and 12B.

[2] = system: Raw264.7 cells
[3] = system: MC3T3-E1 cells

Compound	fluorescence signal (radiant efficiency) [1]	cell proliferation (%) [2]	cell proliferation (%) [3]
CC1(C)C(/C=C/C2=C3Oc4cc(OCc5ccc(OP(=O)(O)O)cc5)ccc4C=C3CCC2)=[N+](CCCCC(=O)NCCCC(O)(P(=O)(O)O)P(=O)(O)O)c2ccccc21 [compound 1-7]	high fluorescence signal	–	–
calcium deficient hydroxyapatite [CDHA]	–	~170%	~170%
